Results: ChEMBL document CHEMBL1138610, “Peganine hydrochloride dihydrate an orally active antileishmanial agent” (Bioorg Med Chem Lett, 2009)
Values after ≈ are worked out from the molar mass of the structure shown. Active and inactive are the calls of the source. The calls are words filed in the database; no cut-off is given here.

Assays:
Leishmania donovani [1] = test: Antileishmanial activity against Leishmania donovani amastigote infected in mouse J774A1 cells expressing green fluorescence protein by flow cytometry; assay type: functional, organism-based; settings: J774.A1
Leishmania donovani [2] = test: Antileishmanial activity against Leishmania donovani promastigotes assessed as inhibition of parasite multiplication at 10 ug/ml; assay type: functional; parameters: scale not given: the % may be the effect or the level left
Leishmania donovani [3] = test: Antileishmanial activity against Leishmania donovani infected in hamster assessed inhibition of parasite growth at 200 mg/kg, po after 5 days; assay type: functional; parameters: scale not given: the % may be the effect or the level left
Leishmania donovani [4] = test: Antileishmanial activity against Leishmania donovani infected in hamster assessed inhibition of parasite growth at 40 mg/kg, po after 5 days; assay type: functional; parameters: scale not given: the % may be the effect or the level left
J774.A1 = test: Cytotoxicity against mouse J774A1 cells at 200 uM after 48 hrs by MTT assay; assay type: cell-based; settings: j774.a1, 48 h
Leishmania donovani [5] = test: Antileishmanial activity against Leishmania donovani infected in hamster assessed inhibition of parasite growth at 50 mg/kg, po after 5 days; assay type: functional, organism-based; parameters: dose 50 mg/kg
Leishmania donovani [6] = test: Antileishmanial activity against Leishmania donovani amastigote infected in mouse J774A1 cells expressing green fluorescence protein assessed as decrease in mean fluorescence intensity at 30 to 100 ug/ml; assay type: functional, organism-based; settings: J774.A1
Leishmania donovani [7] = test: Antileishmanial activity against Leishmania donovani infected in hamster assessed inhibition of parasite growth at 100 mg/kg, po after 5 days; assay type: functional; parameters: scale not given: the % may be the effect or the level left
Leishmania donovani [8] = test: Antileishmanial activity against Leishmania donovani promastigotes expressing green fluorescence protein assessed as decrease in mean fluorescence intensity; assay type: functional, organism-based
Leishmania donovani [9] = test: Antileishmanial activity against Leishmania donovani promastigotes expressing green fluorescence protein by flow cytometry; assay type: functional
Leishmania donovani [10] = test: Antileishmanial activity against Leishmania donovani amastigote infected in mouse J774A1 cells expressing green fluorescence protein assessed as decrease in mean fluorescence intensity up to 25 ug/ml; assay type: functional, organism-based; settings: J774.A1

Structure (SMILES) | IC50 (Leishmania donovani [1]) | Activity (Leishmania donovani [2]) | IC90 (Leishmania donovani [1]) | Activity (Leishmania donovani [3]) | Activity (Leishmania donovani [4]) | Activity (J774.A1) | Activity (Leishmania donovani [5]) | Activity (Leishmania donovani [6]) | Activity (Leishmania donovani [7]) | Activity (Leishmania donovani [8]) | IC50 (Leishmania donovani [8]) | IC90 (Leishmania donovani [8]) | Activity (Leishmania donovani [9]) | Activity (Leishmania donovani [10])
CCCCCCCCCCCCCCCCOP(=O)([O-])OCC[N+](C)(C)C [MILTEFOSINE] | 5 µg/mL (≈ 12.3 µM) | 50% |  |  |  |  |  |  |  |  |  |  |  | 
Cl.OC1CCN2Cc3ccccc3N=C12 (stereo not given) [PEGANINE HYDROCHLORIDE] | 41 µg/mL |  | 85 µg/mL | 87.5% | 95.5% | Non-toxic | inactive | Active | 79.6% | Dose-dependent effect | 38 µg/mL | 75 µg/mL | 50% | Active
